Results as given in patent US20250177473A1, “PEPTIDE REGULATORS OF METABOLISM” (Metabico, Inc., priority 2022, published 2025).
Residues, ends and D or L forms follow the SMILES beside them. No end group written: not given here.

Key:
[1] = biological target: T1, NPSR1 (the receptor of neuropeptide S) (Homo sapiens, UniProt Q6W5P4); experiment: Full Functional GPCR Panel (Eurofins Cerep): NPSR1, intracellular Ca2+; assay type: cell-based; conditions: EPSI 100 μM; 10 nM NPS; HEK-293 cells expressing NPSR1
T1 construct: host or cells: HEK-293
T1 sequence (Q6W5P4 1-371): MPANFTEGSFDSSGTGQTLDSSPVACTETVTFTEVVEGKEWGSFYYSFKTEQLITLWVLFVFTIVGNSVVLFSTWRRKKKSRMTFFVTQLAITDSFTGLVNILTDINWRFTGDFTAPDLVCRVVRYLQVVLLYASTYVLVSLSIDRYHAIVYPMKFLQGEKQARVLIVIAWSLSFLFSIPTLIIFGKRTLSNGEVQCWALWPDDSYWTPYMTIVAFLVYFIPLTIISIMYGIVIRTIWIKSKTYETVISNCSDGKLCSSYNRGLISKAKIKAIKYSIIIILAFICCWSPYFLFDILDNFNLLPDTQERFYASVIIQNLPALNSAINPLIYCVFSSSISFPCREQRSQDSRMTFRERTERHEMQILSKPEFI
Protocol: (§1) EPSI peptide was tested in the dose of 100 μM in 326 functional assays (163 GPCRs both in agonist and antagonist modes) combined in Full Functional GPCR Panel (item P343) provided by Eurofins Cerep SA.
(§2) Each cell-based assay was performed by application of the peptide to cell lines expressing individual receptors with subsequent measuring Ca2+, IP1, or cAMP depending on the receptor type. In the case of antagonist mode assays, the peptide was applied together with the control agonist.
(§3) Cellular agonist effect was calculated as a % of control response to a known reference agonist for each target and cellular antagonist effect was calculated as a % inhibition of control reference agonist response for each target.
EPSI peptide induced activating effect provided by 10 nM of control agonist NPS (neuropeptide S) by 56.4±8.5% in HEK-293 cells expressing NPSR1 (the receptor of neuropeptide S). Activation of NPSR1 was measured by the changes in intracellular Ca2+ levels.

M2 muscarinic receptor = biological target: T2, M2 muscarinic receptor (Homo sapiens, UniProt P08172); experiment: Full Functional GPCR Panel: M2 muscarinic receptor, cAMP; assay type: cell-based; conditions: EPSI 100 μM; vs 3 μM acetylcholine; CHO cells expressing M2
T2 construct: host or cells: CHO
T2 sequence (P08172 1-466): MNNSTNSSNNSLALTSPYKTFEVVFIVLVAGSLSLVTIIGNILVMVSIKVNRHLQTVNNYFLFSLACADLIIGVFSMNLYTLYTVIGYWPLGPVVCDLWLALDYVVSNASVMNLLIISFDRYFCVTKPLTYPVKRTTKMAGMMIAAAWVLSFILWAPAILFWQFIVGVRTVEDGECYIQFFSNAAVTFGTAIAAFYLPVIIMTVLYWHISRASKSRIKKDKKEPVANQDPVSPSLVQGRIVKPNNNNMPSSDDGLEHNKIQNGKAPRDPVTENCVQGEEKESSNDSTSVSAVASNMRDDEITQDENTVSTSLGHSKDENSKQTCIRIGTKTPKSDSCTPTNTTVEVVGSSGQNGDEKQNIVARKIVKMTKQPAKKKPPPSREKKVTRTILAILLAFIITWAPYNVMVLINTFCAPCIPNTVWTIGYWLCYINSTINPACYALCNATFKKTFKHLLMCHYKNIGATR
Protocol: as §1, §2, §3

[2] = tested on: C57BL/6 mice on a high-fat diet; experiment: Tolerability observations in HFD mice study; assay type: in vivo, mouse; conditions: EPSI 5 mg/kg i.n. and i.p.
Protocol: Groups of 10 animals were formed from the existing groups from Stage 2, with similar mean body weight (Table 6). The animals' bodyweight was monitored three times a week, water, and feed consumption—weekly. After the last treatment, the animals were euthanized for necropsy and their blood collected. The internal organs were examined for the presence of macro damage and weighed. The adipose tissue surrounding the epididymis was evaluated as a marker of obesity in animals. For histological examination, samples of adipose tissue and liver tissue were fixed in 10% formalin solution for further histological analysis.
During necropsy, the body's external state, internal surfaces, the cranial cavity, chest, abdominal and pelvic cavities with organs and tissues located in them, the neck with organs and tissues, the skeleton, and the musculoskeletal system were examined. The organs and tissues were fixed in 10% formalin. Liver and adipose tissue samples were weighed and stored in 10% formalin for subsequent histological analysis.

FFAR2 (GPR43) receptor = biological target: T3, FFAR2 (GPR43) receptor (Homo sapiens, UniProt O15552); experiment: FFAR2 cell-based functional antagonist assay, intracellular Ca2+; conditions: EPSI 100 μM; 1 mM sodium acetate; HEK-293 cells expressing FFAR2
T3 construct: host or cells: HEK-293
T3 sequence (O15552 1-330): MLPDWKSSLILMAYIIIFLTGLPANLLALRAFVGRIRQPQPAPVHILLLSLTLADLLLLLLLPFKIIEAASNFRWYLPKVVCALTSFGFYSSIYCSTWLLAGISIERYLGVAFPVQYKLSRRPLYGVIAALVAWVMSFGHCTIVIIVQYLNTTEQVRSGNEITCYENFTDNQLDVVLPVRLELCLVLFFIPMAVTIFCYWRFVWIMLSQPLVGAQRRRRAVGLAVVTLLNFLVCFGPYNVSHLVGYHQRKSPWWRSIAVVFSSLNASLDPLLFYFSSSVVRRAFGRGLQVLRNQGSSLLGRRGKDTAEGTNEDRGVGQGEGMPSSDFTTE
Protocol: as §1, §2, §3
EPSI peptide acted as antagonist of FFAR2 (GPR43) receptor reducing by 28.0±1.5% the signal induced by 1 mM of sodium acetate in HEK-293 cells expressing FFAR2.
EPSI peptide was tested in the doses of 0.03, 0.16, 4, and 20 μM in FFAR2 cell-based functional antagonistic assay provided by Eurofins Cerep SA. The assay was performed in HEK-293 cell line expressing FFAR2 and stimulated with 1 mM sodium acetate (control reference agonist) for FFAR2 signaling induction. Fluorimetric measurement of intracellular Ca2+ levels was performed after the peptide application. Cellular antagonist effect was calculated as a % inhibition of control reference agonist response.

LPAR3 = biological target: T4, LPAR3 (Homo sapiens, UniProt Q9UBY5); experiment: Full Functional GPCR Panel: LPAR3; assay type: cell-based; conditions: EPSI 100 μM; 30 nM Lysophosphatidic acid; CHO cells expressing LPAR3
T4 construct: host or cells: CHO
T4 sequence (Q9UBY5 1-353): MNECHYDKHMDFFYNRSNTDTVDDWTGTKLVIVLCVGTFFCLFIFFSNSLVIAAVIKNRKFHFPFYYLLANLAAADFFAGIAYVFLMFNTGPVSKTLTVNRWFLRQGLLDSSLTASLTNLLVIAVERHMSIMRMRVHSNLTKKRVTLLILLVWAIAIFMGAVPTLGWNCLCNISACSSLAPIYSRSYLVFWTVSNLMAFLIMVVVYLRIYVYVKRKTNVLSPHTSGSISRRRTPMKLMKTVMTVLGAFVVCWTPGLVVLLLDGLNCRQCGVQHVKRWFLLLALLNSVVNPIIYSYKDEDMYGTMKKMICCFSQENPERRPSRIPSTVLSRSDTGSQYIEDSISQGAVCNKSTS
Protocol: as §1, §2, §3
EPSI peptide induced activating effect provided by 30 nM of control agonist Lysophosphatidic acid by 29.2±3.0% in CHO cells expressing LPAR3.

GPR109A receptor = biological target: T5, GPR109A receptor (Homo sapiens, UniProt Q8TDS4); experiment: Full Functional GPCR Panel: GPR109A antagonist mode; assay type: cell-based; conditions: EPSI 100 μM; 300 nM nicotinic acid; RBL cells expressing GPR109A
T5 construct: host or cells: RBL
T5 sequence (Q8TDS4 whole entry): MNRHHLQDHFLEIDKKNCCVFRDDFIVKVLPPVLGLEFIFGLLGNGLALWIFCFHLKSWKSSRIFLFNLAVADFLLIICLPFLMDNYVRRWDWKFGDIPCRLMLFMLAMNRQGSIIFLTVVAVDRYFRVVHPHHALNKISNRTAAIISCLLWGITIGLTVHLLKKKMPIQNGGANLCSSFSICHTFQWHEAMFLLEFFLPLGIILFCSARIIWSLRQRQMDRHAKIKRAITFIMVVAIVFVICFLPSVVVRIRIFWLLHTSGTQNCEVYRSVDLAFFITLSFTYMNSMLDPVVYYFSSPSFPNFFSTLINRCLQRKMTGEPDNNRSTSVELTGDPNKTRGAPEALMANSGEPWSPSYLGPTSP
Protocol: as §1, §2, §3

HepG2 cells = experiment: HepG2 cell death on incubation with antagonist; assay type: cell-based, human; conditions: co-incubation with EPSI 0.05 mg/mL in M67 reporter experiment
Protocol: • HepG2 human hepatocyte carcinoma cell line (HB-8065, ATCC, USA). • HepG2 cells were cultured in a complete DMEM medium containing 15% FBS.
Transfected HepG2 cells were co-incubated with EPSI peptide (0.05 mg/mL) and antagonists of the selected receptors.

[3] = tested on: primary mouse fibroblasts; experiment: Cell confluence of fibroblasts (cytotoxic effect); assay type: cell-based; conditions: 2.5 mg/ml (highest dose), 24 hours
Protocol: The study was carried out in primary mouse fibroblasts. Isolation of fibroblasts was carried out with techniques described earlier (See Example 1). Fibroblasts were incubated with […] (SEQ ID NO: 1) peptide at different concentrations (0.005 mg/ml; 0.05 mg/ml; 0.5 mg/ml; 2.5 mg/ml) for 24 hours. Each treatment group was represented in two biological replicates.

IL-6 = IL-6 mRNA expression in LPS-induced primary mouse fibroblasts; assay type: cell-based; conditions: peptide 100 μM + LPS 0.5 μg/mL, 24 hours
Protocol: (§4) The study was carried out in primary mouse fibroblasts. Isolation of fibroblasts was carried out with techniques described earlier (See Example 1). Fibroblasts were cultured for 3 days. The following stressors were applied separately: bacterial lipopolysaccharides (LPS), high glucose in the incubation medium, and serum-free incubation medium.
(§5) LPS is a major outer surface membrane component that induces an inflammatory response in cells.
(§6) Isolation of mRNA, synthesis of the first strand of cDNA, and RT-PCR were performed with techniques described earlier (See Example 1). Expression levels of IRS2, TNF-α, IL-6, and GSK3p (WNT-pathway) were analyzed.
(§7) The study was carried out in primary mouse fibroblasts. Isolation of fibroblasts was carried out with techniques described earlier (See Example 1). Incubation of fibroblasts with 100 μM individual peptides and 0.5 μg/mL LPS was carried out for 24 hours. Each treatment group was represented in two biological replicates.
(§8) Isolation of mRNA, synthesis of the first strand of cDNA, and RT-PCR were performed with techniques described earlier (See Example 1). Expression levels of RPL27, TNF-α, IL-6, and IRS2 genes were analyzed.

TNF-α = TNF-α mRNA expression in LPS-induced primary mouse fibroblasts; assay type: cell-based; conditions: peptide 100 μM + LPS 0.5 μg/mL, 24 hours
Protocol: as §4, §5, §6, §7, §8

IRS2 gene expression = experiment: IRS2 and metabolic gene mRNA expression (real-time PCR) in primary mouse fibroblasts; assay type: cell-based; conditions: 24 hours
Protocol: The study was carried out in primary mouse fibroblasts. Fibroblasts were isolated from skin tissues of twenty C57BL/6 mice in accordance with the standard protocol (Seluanov (2010). Establishing primary adult fibroblast cultures from rodents. JoVE. 44). Fibroblasts were cultured in a complete DMEM/F12 medium containing 15% FBS for two days, after which they were incubated with individual peptides for 24 hours. The dose of each peptide was 0.5 mg/ml. The experiment was carried out in 2 biological replicates.
The isolation of total RNA from cells was performed using the “ExtractRNA” reagent (Evrogen, Russia) analog of Trizol, according to the manufacturer's protocol. The quality of the isolated total RNA was assessed by measuring the concentration of RNA and the ratio of optical absorption at wavelengths of 260 nm and 280 nm. […]
Real-time PCR was performed using commercially available kit qPCR mix-HS-SYBR+Low Rox (Evrogen, Russia) and 7500 real-time PCR System (Applied Biosystems). […] We analyzed expression levels of TSC1, TSC2, pS6K1, pAKT, IRS2, SREBP-1, Stat3 genes. […]
Isolation of mRNA, synthesis of the first strand of cDNA, and RT-PCR were performed with techniques described earlier (See Example 1). Expression levels of IRS2, TNF-α, IL-6, and GSK3p (WNT-pathway) were analyzed. […]

Compound: CC[C@H](C)[C@H](NC(=O)[C@H](CO)NC(=O)[C@@H]1CCCN1C(=O)[C@@H](N)CCC(=O)O)C(=O)O [EPSI] (H-EPSI-OH)
- induction of activating effect of control agonist NPS (intracellular Ca2+) [1]: 56.4±8.5%
- reduction of cAMP levels, efficiency compared to control agonist (M2 muscarinic receptor): 26.8±6.8%
- local irritating effect (nasal mucosa; abdominal wall skin and subcutaneous tissue) [2]: no local irritating effect
- toxic effects throughout the experiment ([2]; up to 28 days): no toxic effects
- reduction of signal induced by sodium acetate (antagonist mode) (FFAR2 (GPR43) receptor): 28.0±1.5%
- induction of activating effect of control agonist Lysophosphatidic acid (LPAR3): 29.2±3.0%
- reduction of signal evoked by nicotinic acid (antagonist mode) (GPR109A receptor): 37.1±2.1%

Compound: COc1cc(OC)cc(N(CCNC(C)C)c2ccc3ncc(-c4cnn(C)c4)nc3c2)c1 [Erdafitinib]
- HepG2 cell death (HepG2 cells): total cell death

Compound: DLSKEPSISRE
- cytotoxic effect (confluence of the cells) [3]: absence of cytotoxic effect

Compound: SKEPSIS (Synthetic polymer)
- LPS-evoked levels of IL-6 expression (IL-6): reducing LPS-evoked levels
- LPS-evoked levels of TNF-α expression (TNF-α): reducing LPS-evoked levels
- IRS2 expression during LPS-induced inflammatory response (IRS2 gene expression; peptide 100 μM + LPS 0.5 μg/mL): induced
- IRS2 gene expression levels (IRS2 gene expression; pharmacophore screen, peptides 100 μM): induce IRS2 gene expression levels
